Assay results reported in US20230000813A1, “COMPOUND FOR THE TREATMENT OF BOVINE OR SWINE RESPIRATORY DISEASE” (Intervet Inc., priority 2016, published 2023).
Converted amounts (≈) assume the structure as drawn. Like-named read-outs stand apart in the source and are kept apart here.

Assays:
Assay in all cases: MIC, broth-microdilution (CLSI VET01-A4)
Format in all cases: cell-based
[1] = system: Mannheimia haemolytica MH 12587 (1071, BRD field isolate, macrolide-resistance: erm+, E+); settings: Mannheimia haemolytica MH 12587, macrolide-resistant
Description: (§1) The Minimum inhibitory concentrations (MIC) of compounds according to the invention for a number of veterinary bacterial pathogens were determined by the broth-microdilution method according to CLSI document VET01-A4.
(§2) Microdilution trays containing a doubling dilution series of the test compound were used for the tests. The MIC results were interpreted according to the CLSI documents VET01-S3. The lowest concentration of compound at which no visible growth (i.e. no turbidity) detected by the unaided eye was recorded as the MIC.
(§3) The Minimum inhibitory concentrations (MIC) of compounds according to the invention were determined by the broth-microdilution method according to CLSI document VET01-A4.
(§4) Microdilution trays containing a doubling dilution series of the test compound were used for the tests.
(§5) The MIC results were interpreted according to the CLSI documents VET01-S3. The lowest concentration of compound at which no visible growth (i.e. no turbidity) detected by the unaided eye was recorded as the MIC.

[2] = system: Mannheimia haemolytica MH 10720 (154, BRD field isolate); settings: Mannheimia haemolytica MH 10720; for MIC: read-out: MIC MH 10720
Description: as §1, §2, §3, §4, §5

[3] = system: Pasteurella multocida PM 12080 (IV102277-0093, BRD field isolate); settings: Pasteurella multocida PM 12080; for MIC: read-out: MIC PM 12080
Description: as §1, §2, §3, §4, §5

[4] = system: Pasteurella multocida PM 6267 (P 2225 (L386), reference strain, mouse infection strain); settings: Pasteurella multocida PM 6267; read-out: MIC PM 6267
Description: as §1, §2, §3, §4, §5

[5] = system: Pasteurella multocida PM 6391 (ATCC 43137, reference strain); settings: Pasteurella multocida PM 6391; for MIC: read-out: MIC PM 6391
Description: as §1, §2, §3, §4, §5

[6] = system: Mannheimia haemolytica MH 6374 (ATCC 33396, reference strain); settings: Mannheimia haemolytica MH 6374, read-out: MIC MH 6374
Description: as §1, §2, §3, §4, §5

[7] = system: Mannheimia haemolytica MH 6357 (M7/2, reference strain, cattle infection strain); settings: Mannheimia haemolytica MH 6357; read-out: MIC MH 6357
Description: as §1, §2, §3, §4, §5

[8] = system: Mannheimia haemolytica MH 13065 (XB0446-6003.9, BRD field isolate)
Description: as §1, §2

[9] = system: Mannheimia haemolytica MH 13093 (XB0472-6014.1, BRD field isolate)
Description: as §1, §2

| Compound | MIC MH 12587 [1] [µM] | MIC [2] [µM] | MIC PM 12080 [3] | MIC [4] [µM] | MIC PM 6391 [5] | MIC [6] [µM] | MIC [7] [µM] | MIC [8] [µM] | MIC [9] [µM] | MIC [3] [µM] | MIC [5] [µM] | MIC MH 10720 [2] | MIC ([5]; ATCC43137) [µM] | MIC ([6]; ATCC33396) [µM] |
| --- | --- | --- | --- | --- | --- | --- | --- | --- | --- | --- | --- | --- | --- | --- |
| CC(C)(N)C(NC(=O)c1ccc(C#Cc2ccc(CNCc3cccs3)nc2)cc1)C(=O)NO (racemic) [Compound 549] | 1.6 (≈ 0.764 µg/mL) | 0.4 (≈ 0.191 µg/mL) | <=0.1 μM | 0.8 (≈ 0.382 µg/mL) | <=0.1 μM | 0.4 (≈ 0.191 µg/mL) | 0.8 (≈ 0.382 µg/mL) | 0.8 (≈ 0.382 µg/mL) | 1.6 (≈ 0.764 µg/mL) |  |  |  |  |  |
| CC(C)(N)C(NC(=O)c1ccc(C#Cc2ccc(CNCc3cccnc3)s2)cc1)C(=O)NO (stereo not shown) [Compound 532] | 1.6 (≈ 0.764 µg/mL) | 0.2 (≈ 0.0955 µg/mL) | <=0.1 μM | 1.6 (≈ 0.764 µg/mL) | <=0.1 μM | 0.8 (≈ 0.382 µg/mL) | 1.6 (≈ 0.764 µg/mL) | 0.8 (≈ 0.382 µg/mL) | 1.6 (≈ 0.764 µg/mL) |  |  |  |  |  |
| COc1ccc(CNCc2ccc(C#Cc3ccc(C(=O)NC(C(=O)NO)C(C)(C)N)cc3)cc2)cc1 (stereo not shown) [Compound 513] | 1.6 (≈ 0.801 µg/mL) | 0.2 (≈ 0.1 µg/mL) |  | 1.6 (≈ 0.801 µg/mL) |  | 0.8 (≈ 0.4 µg/mL) | 1.6 (≈ 0.801 µg/mL) | 1.6 (≈ 0.801 µg/mL) | 1.6 (≈ 0.801 µg/mL) | 0.2 (≈ 0.1 µg/mL) | 0.2 (≈ 0.1 µg/mL) |  |  |  |
| Cc1ccc(CNCc2ccc(C#Cc3ccc(C(=O)NC(C(=O)NO)C(C)(C)N)cc3)s2)cc1 (stereo not shown) [Compound 537] | 1.6 (≈ 0.785 µg/mL) | 0.2 (≈ 0.0981 µg/mL) | <=0.1 μM | 1.6 (≈ 0.785 µg/mL) |  | 0.8 (≈ 0.393 µg/mL) | 0.8 (≈ 0.393 µg/mL) | 0.8 (≈ 0.393 µg/mL) | 1.6 (≈ 0.785 µg/mL) |  | 0.2 (≈ 0.0981 µg/mL) |  |  |  |
| CC(C)(N)C(NC(=O)c1ccc(C#Cc2ccc(CNCc3ccco3)cc2)cc1)C(=O)NO (stereo not shown) [C. 518] | 0.8 (≈ 0.368 µg/mL) |  | <=0.1 μM | 0.8 (≈ 0.368 µg/mL) |  | 0.4 (≈ 0.184 µg/mL) | 0.8 (≈ 0.368 µg/mL) | 0.8 (≈ 0.368 µg/mL) | 0.8 (≈ 0.368 µg/mL) |  |  | <=0.1 μM |  |  |
| CC(C)(N)C(NC(=O)c1ccc(C#Cc2ccc([N+](=O)[O-])cc2)cc1)C(=O)NO (stereo not shown) [C. 552, N-[2-amino-1-(hydroxycarbamoyl)-2-methyl-propyl]-4-[2-(4-nitrophenyl)ethynyl]benzamide] |  | 0.2 (≈ 0.0793 µg/mL) |  | 0.8 (≈ 0.317 µg/mL) |  |  | 0.8 (≈ 0.317 µg/mL) | 0.8 (≈ 0.317 µg/mL) | 0.8 (≈ 0.317 µg/mL) | ≤ 0.1 |  |  | ≤ 0.1 | 0.2 (≈ 0.0793 µg/mL) |
| CC(C)(N)C(NC(=O)c1ccc(C#Cc2ccc(CNCc3ccco3)s2)cc1)C(=O)NO (stereo not shown) [Compound 535] | 0.8 (≈ 0.373 µg/mL) |  | <=0.1 μM | 0.8 (≈ 0.373 µg/mL) | <=0.1 μM | 0.2 (≈ 0.0933 µg/mL) | 0.8 (≈ 0.373 µg/mL) | 0.4 (≈ 0.187 µg/mL) | 0.8 (≈ 0.373 µg/mL) |  |  | <=0.1 μM |  |  |
| CC(C)(N)C(NC(=O)c1ccc(C#Cc2ccc(CNCc3ccncc3)s2)cc1)C(=O)NO (stereo not shown) [Compound 527] | 0.8 (≈ 0.382 µg/mL) | 0.2 (≈ 0.0955 µg/mL) | <=0.1 μM | 1.6 (≈ 0.764 µg/mL) | <=0.1 μM | 0.8 (≈ 0.382 µg/mL) | 0.8 (≈ 0.382 µg/mL) | 0.8 (≈ 0.382 µg/mL) | 1.6 (≈ 0.764 µg/mL) |  |  |  |  |  |
| CC(C)(N)C(NC(=O)c1ccc(C#Cc2ccc(CNCc3ccnc(Cl)c3)s2)cc1)C(=O)NO (stereo not shown) [Compound 533] | 1.6 (≈ 0.819 µg/mL) | 0.2 (≈ 0.102 µg/mL) | <=0.1 μM | 1.6 (≈ 0.819 µg/mL) |  | 0.8 (≈ 0.41 µg/mL) | 0.8 (≈ 0.41 µg/mL) | 0.8 (≈ 0.41 µg/mL) | 0.8 (≈ 0.41 µg/mL) |  | 0.2 (≈ 0.102 µg/mL) |  |  |  |
| CC(C)(N)C(NC(=O)c1ccc(C#Cc2ccc(CNC3CC3)s2)cc1)C(=O)NO (stereo not shown) [C. 521] | 0.8 (≈ 0.341 µg/mL) |  | <=0.1 μM | 0.8 (≈ 0.341 µg/mL) | <=0.1 μM | 0.4 (≈ 0.171 µg/mL) | 0.8 (≈ 0.341 µg/mL) | 1.6 (≈ 0.682 µg/mL) | 0.8 (≈ 0.341 µg/mL) |  |  | <=0.1 μM |  |  |
| CC(C)(N)C(NC(=O)c1ccc(C#Cc2ccc(CNCc3ccco3)nc2)cc1)C(=O)NO (racemic) [Compound 548] | 1.6 (≈ 0.738 µg/mL) | 0.2 (≈ 0.0923 µg/mL) | <=0.1 μM | 1.6 (≈ 0.738 µg/mL) |  | 0.8 (≈ 0.369 µg/mL) | 1.6 (≈ 0.738 µg/mL) | 0.8 (≈ 0.369 µg/mL) | 1.6 (≈ 0.738 µg/mL) |  | 0.2 (≈ 0.0923 µg/mL) |  |  |  |
| CC(C)(N)C(NC(=O)c1ccc(C#Cc2ccc(CNCc3ccccn3)s2)cc1)C(=O)NO (stereo not shown) [Compound 534] | 1.6 (≈ 0.764 µg/mL) | 0.2 (≈ 0.0955 µg/mL) | <=0.1 μM | 1.6 (≈ 0.764 µg/mL) | <=0.1 μM | 0.8 (≈ 0.382 µg/mL) | 0.8 (≈ 0.382 µg/mL) | 0.8 (≈ 0.382 µg/mL) | 1.6 (≈ 0.764 µg/mL) |  |  |  |  |  |
| C=CCNCc1ccc(C#Cc2ccc(C(=O)NC(C(=O)NO)C(C)(C)N)cc2)s1 (stereo not shown) [C. 522] | 1.6 (≈ 0.682 µg/mL) | 0.2 (≈ 0.0853 µg/mL) | <=0.1 μM | 1.6 (≈ 0.682 µg/mL) |  | 0.4 (≈ 0.171 µg/mL) | 1.6 (≈ 0.682 µg/mL) | 0.8 (≈ 0.341 µg/mL) | 1.6 (≈ 0.682 µg/mL) |  | 0.2 (≈ 0.0853 µg/mL) |  |  |  |
| CC(C)(N)C(NC(=O)c1ccc(C#Cc2ccc(N)cc2)cc1)C(=O)NO (stereo not shown) [C. 553, N-(3-amino-1-(hydroxyamino)-3-methyl-1-oxobutan-2-yl)-4-((4-aminophenyl)ethynyl)benzamide] |  | 0.2 (≈ 0.0733 µg/mL) |  | 0.8 (≈ 0.293 µg/mL) |  |  | 0.8 (≈ 0.293 µg/mL) | 1.6 (≈ 0.586 µg/mL) | 0.8 (≈ 0.293 µg/mL) | ≤ 0.1 |  |  | ≤ 0.1 | 0.4 (≈ 0.147 µg/mL) |
| CC(C)(C(NC(=O)c1ccc(C#Cc2ccc(CNC3CC3)cc2)cc1)C(=O)NO)[N+](=O)[O-] (stereo not shown) [Compound 554] | 0.8 (≈ 0.36 µg/mL) |  | <=0.1 μM | 0.4 (≈ 0.18 µg/mL) |  | 0.4 (≈ 0.18 µg/mL) | 0.4 (≈ 0.18 µg/mL) | 0.4 (≈ 0.18 µg/mL) | 0.4 (≈ 0.18 µg/mL) |  |  | <=0.1 μM |  |  |
| COCCNCc1ccc(C#Cc2ccc(C(=O)NC(C(=O)NO)C(C)(C)N)cc2)s1 (stereo not shown) [Compound 523] | 1.6 (≈ 0.711 µg/mL) | 0.4 (≈ 0.178 µg/mL) | <=0.1 μM |  |  | 0.8 (≈ 0.356 µg/mL) | 1.6 (≈ 0.711 µg/mL) | 1.6 (≈ 0.711 µg/mL) | 1.6 (≈ 0.711 µg/mL) |  | 0.2 (≈ 0.0889 µg/mL) |  |  |  |
| CC(C)(N)C(NC(=O)c1ccc(C#Cc2ccc(CNCc3ccccc3)s2)cc1)C(=O)NO (stereo not shown) [Compound 525] | 1.6 (≈ 0.763 µg/mL) | 0.2 (≈ 0.0953 µg/mL) | <=0.1 μM | 1.6 (≈ 0.763 µg/mL) |  | 0.4 (≈ 0.191 µg/mL) | 0.8 (≈ 0.381 µg/mL) | 0.8 (≈ 0.381 µg/mL) | 0.8 (≈ 0.381 µg/mL) |  | 0.2 (≈ 0.0953 µg/mL) |  |  |  |
| COc1ccc(CNCc2ccc(C#Cc3ccc(C(=O)NC(C(=O)NO)C(C)(C)N)cc3)s2)cc1 (stereo not shown) [Compound 526] | 1.6 (≈ 0.811 µg/mL) | 0.2 (≈ 0.101 µg/mL) |  | 1.6 (≈ 0.811 µg/mL) |  | 0.4 (≈ 0.203 µg/mL) | 0.8 (≈ 0.405 µg/mL) | 0.8 (≈ 0.405 µg/mL) | 1.6 (≈ 0.811 µg/mL) | 0.2 (≈ 0.101 µg/mL) | 0.2 (≈ 0.101 µg/mL) |  |  |  |
| CC(C)(N)C(NC(=O)c1ccc(C#Cc2ccc(CNCc3cccs3)s2)cc1)C(=O)NO (stereo not shown) [Compound 536] | 0.8 (≈ 0.386 µg/mL) |  | <=0.1 μM | 0.8 (≈ 0.386 µg/mL) | <=0.1 μM | 0.2 (≈ 0.0965 µg/mL) | 0.8 (≈ 0.386 µg/mL) | 0.4 (≈ 0.193 µg/mL) | 0.8 (≈ 0.386 µg/mL) |  |  | <=0.1 μM |  |  |
